Holding throughout (type): cell-based
The subject of assay [1] is HEK-Blue IFNγ reporter cells (IFNγ-stimulated STAT1 SEAP reporter). The assay can be described thus: HEK-Blue IFNγ SEAP reporter assay for determining selectivity. The conditions noted are these: 50 ng/mL human recombinant IFNγ, read-out: IFN-γ (SEAP selectivity, IC50). Here is the method:
(§1) Example B-3: HEK-Blue™ IL-2 and IFNγ Reporter Assays for Determining Selectivity
(§2) HEK-Blue™ IL-2 and IFNγ reporter cells with a stably-integrated cytokine receptor and STAT5 or STAT1 express STAT-inducible secreted embryonic alkaline phosphatase (SEAP) reporter gene upon cytokine stimulation. These cells were plated in DMEM (Gibco) containing 10% heat-inactivated FBS (Gibco) and 100 U/mL PenStrep (Gibco) at 37° C. under 5% CO2 conditions for 20-22 hours. The cells were then pretreated with serially diluted test compounds for 60 min prior to stimulation with either 4 ng/mL human recombinant IL-2 (Miltenyl Biotech) or 50 ng/mL human recombinant IFNγ (InvivoGen) for 24 hours. SEAP induction was measured using the QUANTI-Blue™ Solution (InvivoGen) according to the manufacturer's instructions.
Background: Reporter assays use an easily measured gene product as a stand-in for the process of interest.

Assay [2] has as its system HEK-Blue IL-2 reporter cells (IL-2-stimulated STAT5 SEAP reporter). The assay can be described thus: HEK-Blue IL-2 SEAP reporter assay for determining selectivity. The settings on record: 4 ng/mL human recombinant IL-2. As for the experimental part:
as §1, §2

Assay [3] has as its system HEK-Blue IL-23 cells (IL-23-stimulated STAT3 SEAP reporter; TYK2 JH2). The assay can be described thus: HEK-Blue IL-23 SEAP reporter assay for profiling TYK2 pseudokinase (JH2) inhibition. The conditions noted are these: 10 ng/mL human recombinant IL-23, SEAP reporter, read-out: IL23 (TYK2 inhibitory activity, IC50). Here is the method:
(§3) Example B-1: HEK-Blue™ IL-23 and IFNα/β Reporter Assays for Profiling TYK2 Pseudokinase (JH2) Inhibition
(§4) HEK-Blue™ IL-23 and IFNα/β cells with a stably-integrated cytokine receptor and STAT3 or STAT1 express STAT-inducible secreted embryonic alkaline phosphatase (SEAP) reporter gene upon cytokine stimulation. These cells are plated in DMEM (Gibco) containing 10% heat-inactivated FBS (Gibco) and 100 U/mL PenStrep (Gibco) at 37° C. under 5% CO2 conditions for 20-22 hours. The cells are then pretreated with serially diluted test compounds for 60 min prior to stimulation with either 10 ng/mL human recombinant IL-23 (Miltenyl Biotech) or 1 ng/mL human recombinant IFNα (InvivoGen) for 22-24 hours for IL-23 or 16-18 h for IFNα. SEAP induction is measured using the QUANTI Blue™ Solution (InvivoGen) according to the manufacturer's instructions.

For assay [4], the system named is HEK-Blue IFNα/β cells (IFNα-stimulated STAT1 SEAP reporter; TYK2 JH2). Put plainly: HEK-Blue IFNα/β SEAP reporter assay for profiling TYK2 pseudokinase (JH2) inhibition. The conditions noted are these: Homo sapiens, HEK-Blue, 1 ng/mL human recombinant IFNα, read-out: IFNα (TYK2 inhibitory activity, IC50). As for the experimental part:
as §3, §4

We go through 17 compounds from patent publication US12084458B2, “Substituted pyridines, pyridazines, and pyrimidines as TYK2 inhibitors” (Sudo Biosciences Limited, priority 2021, dated 2024).

Each structure is given as a SMILES string. Where two headings read alike, the source gives them in different places.

In the case of `[2H]C([2H])([2H])NC(=O)c1cnc(NC(=O)C2CC2)cc1Nc1ccc(F)c2c1N(C)Cc1nc(C)nn1-2` [Compound 107, 6-(cyclopropanecarboxamido)-4-((9-fluoro-2,5-dimethyl-4,5-dihydro-[1,2,4]triazolo[1,5-a]quinoxalin-6-yl)amino)-N-(methyl-d3)nicotinamide], the IC50 is over 1000 nM in assay [1] (Homo sapiens, HEK-Blue); over 1000 nM in assay [2]; under 30 nM in assay [3]; 30 to 300 nM in assay [4].
As for `[2H]C([2H])([2H])NC(=O)c1cnc(NC(=O)C2CC2)cc1Nc1cccc2c1N(C)C1(CC1)c1nc(C)nn1-2` [Compound 40, 6-(cyclopropanecarboxamido)-4-((2′,5′-dimethyl-5′H-spiro[cyclopropane-1,4′-[1,2,4]triazolo[1,5-a]quinoxalin]-6′-yl)amino)-N-(methyl-d3)nicotinamide], the IC50 in assay [1] (Homo sapiens, HEK-Blue) was over 1000 nM; in assay [2], over 1000 nM; in assay [3], under 30 nM; in assay [4], under 30 nM.
As to `[2H]C([2H])([2H])NC(=O)c1cnc(NC(=O)[C@@H]2CC2(F)F)cc1Nc1cccc2c1N(C)Cc1nn(C)nc1-2` [Compound 70, (S)-6-(2,2-difluorocyclopropane-1-carboxamido)-4-((2,5-dimethyl-4,5-dihydro-2H-[1,2,3]triazolo[4,5-c]quinolin-6-yl)amino)-N-(methyl-d3)nicotinamide], the half-maximal inhibitory concentration (IC50) in assay [1] (Homo sapiens, HEK-Blue) is over 1000 nM; in assay [2], over 1000 nM; in assay [3] it was under 30 nM; in assay [4], 30 to 300 nM.
Regarding `[2H]C([2H])([2H])NC(=O)c1cnc(Nc2cc(C)nc(C)n2)cc1Nc1cccc2c1N(C)Cc1nc(C)nn1-2` [Compound 26, 4-((2,5-dimethyl-4,5-dihydro-[1,2,4]triazolo[1,5-a]quinoxalin-6-yl)amino)-6-((2,6-dimethylpyrimidin-4-yl)amino)-N-(methyl-d3)nicotinamide], the IC50 in assay [1] (Homo sapiens, HEK-Blue) was 30 to 300 nM; in assay [2], 300 to 1000 nM; in assay [3], under 30 nM; in assay [4] it was under 30 nM.
As to `[2H]C([2H])([2H])NC(=O)c1cnc(NC(=O)C2CC2)cc1Nc1cccc2c1N(C)[C@@H](C)c1nc(C)nn1-2` (single isomer, unassigned) [Compound 25], the 50% inhibitory concentration (IC50) is over 1000 nM in assay [1] (Homo sapiens, HEK-Blue); over 1000 nM in assay [2]; under 30 nM in assay [3]; under 30 nM in assay [4].
For `[2H]C([2H])([2H])NC(=O)c1nnc(NC(=O)C2CC2)cc1Nc1cccc2c1N(C)[C@H](C([2H])([2H])[2H])c1nc(C)nn1-2` [Compound 44, (R)-6-(cyclopropanecarboxamido)-4-((2,5-dimethyl-4-(methyl-d3)-4,5-dihydro-[1,2,4]triazolo[1,5-a]quinoxalin-6-yl)amino)-N-(methyl-d3)pyridazine-3-carboxamide], the IC50 in assay [1] (Homo sapiens, HEK-Blue) is over 1000 nM; in assay [2], over 1000 nM; in assay [3], under 30 nM; in assay [4] it was under 30 nM.
For the compound `[2H]C([2H])([2H])NC(=O)c1cnc(NC(=O)NC2CCC2)cc1Nc1cccc2c1N(C)Cc1nn(C)nc1-2` [Compound 64, 6-(3-cyclobutylureido)-4-((2,5-dimethyl-4,5-dihydro-2H-[1,2,3]triazolo[4,5-c]quinolin-6-yl)amino)-N-(methyl-d3)nicotinamide], the half-maximal inhibitory concentration (IC50) in assay [1] (Homo sapiens, HEK-Blue) was over 1000 nM; in assay [2] it was over 1000 nM; in assay [3], under 30 nM; in assay [4] it was 30 to 300 nM.
Consider `[2H]C([2H])([2H])NC(=O)c1nnc(NC(=O)C2CC2)cc1Nc1cccc2c1N(C)[C@@H](C)c1nn(C)nc1-2` (single isomer, unassigned) [Compound 60], for which the IC50 in assay [1] (Homo sapiens, HEK-Blue) was over 1000 nM; in assay [2], over 1000 nM; in assay [3], under 30 nM; in assay [4] it was under 30 nM.
In the case of `[2H]C([2H])([2H])NC(=O)c1cnc(NC(=O)NC2CC2)cc1Nc1cccc2c1N(C)Cc1nn(C)nc1-2` [Compound 66, 6-(3-cyclopropylureido)-4-((2,5-dimethyl-4,5-dihydro-2H-[1,2,3]triazolo[4,5-c]quinolin-6-yl)amino)-N-(methyl-d3)nicotinamide], the 50% inhibitory concentration (IC50) in assay [1] (Homo sapiens, HEK-Blue) was over 1000 nM; in assay [2], over 1000 nM; in assay [3], under 30 nM; in assay [4], 30 to 300 nM.
Consider `[2H]C([2H])([2H])NC(=O)c1nnc(NC(=O)C2CC2)cc1Nc1nccc2c1N(C)Cc1nn(CC)nc1-2` [Compound 93, 6-(cyclopropanecarboxamido)-4-((2-ethyl-5-methyl-4,5-dihydro-2H-[1,2,3]triazolo[4,5-c][1,7]naphthyridin-6-yl)amino)-N-(methyl-d3)pyridazine-3-carboxamide], for which the IC50 in assay [1] (Homo sapiens, HEK-Blue) is 300 to 1000 nM; in assay [2], 300 to 1000 nM; in assay [3], under 30 nM; in assay [4], under 30 nM.
Consider `[2H]C([2H])([2H])NC(=O)c1nnc(NC(=O)NC)cc1Nc1cccc2c1N(C)Cc1nc(C)nn1-2` [Compound 19, 4-((2,5-dimethyl-4,5-dihydro-[1,2,4]triazolo[1,5-a]quinoxalin-6-yl)amino)-N-(methyl-d3)-6-(3-methylureido)pyridazine-3-carboxamide], for which the IC50 in assay [1] (Homo sapiens, HEK-Blue) is 300 to 1000 nM; in assay [2], over 1000 nM; in assay [3] it was under 30 nM; in assay [4] it was 30 to 300 nM.
For `[2H]C([2H])([2H])NC(=O)c1cnc(NC(=O)NC)cc1Nc1cccc2c1N(C)[C@H](C)c1nn(C)nc1-2` (single isomer, unassigned) [Compound 56], the IC50 in assay [1] (Homo sapiens, HEK-Blue) was over 1000 nM; in assay [2], over 1000 nM; in assay [3], 30 to 300 nM; in assay [4], over 1000 nM.
Turning to `[2H]C([2H])([2H])NC(=O)c1nnc(NC(=O)C2CC2)cc1Nc1nccc2c1N(C)C([2H])([2H])c1nn(C)nc1-2` [Compound 96, 6-(cyclopropanecarboxamido)-4-((2,5-dimethyl-4,5-dihydro-2H-[1,2,3]triazolo[4,5-c][1,7]naphthyridin-6-yl-4,4-d2)amino)-N-(methyl-d3)pyridazine-3-carboxamide], the IC50 was 30 to 300 nM in assay [1] (Homo sapiens, HEK-Blue); 300 to 1000 nM in assay [2]; under 30 nM in assay [3]; under 30 nM in assay [4].
Turning to `[2H]C([2H])([2H])NC(=O)c1nnc(NC(=O)[C@H]2CC2(F)F)cc1Nc1nccc2c1N(C)Cc1nn(C)nc1-2` [Compound 69, (R)-6-(2,2-difluorocyclopropane-1-carboxamido)-4-((2,5-dimethyl-4,5-dihydro-2H-[1,2,3]triazolo[4,5-c][1,7]naphthyridin-6-yl)amino)-N-(methyl-d3)pyridazine-3-carboxamide], the IC50 in assay [1] was over 1000 nM; in assay [2], over 1000 nM; in assay [3], under 30 nM; in assay [4], 30 to 300 nM.
For `[2H]C([2H])([2H])NC(=O)c1nnc(NC(=O)C2CC2)cc1Nc1nccc2c1N(C)Cc1nn(C([2H])([2H])[2H])nc1-2` [Compound 91, 6-(cyclopropanecarboxamido)-N-(methyl-d3)-4-((5-methyl-2-(methyl-d3)-4,5-dihydro-2H-[1,2,3]triazolo[4,5-c][1,7]naphthyridin-6-yl)amino)pyridazine-3-carboxamide], the IC50 in assay [1] (Homo sapiens, HEK-Blue) was 30 to 300 nM; in assay [2], over 1000 nM; in assay [3] it was under 30 nM; in assay [4] it was under 30 nM.
For `[2H]C([2H])([2H])NC(=O)c1nnc(NC(=O)C2CC2)cc1Nc1cccc2c1N(C)C([2H])([2H])c1nn(C)nc1-2` [Compound 53, 6-(cyclopropanecarboxamido)-4-((2,5-dimethyl-4,5-dihydro-2H-[1,2,3]triazolo[4,5-c]quinolin-6-yl-4,4-d2)amino)-N-(methyl-d3)pyridazine-3-carboxamide], the half-maximal inhibitory concentration (IC50) was 30 to 300 nM in assay [1] (Homo sapiens, HEK-Blue); 300 to 1000 nM in assay [2]; under 30 nM in assay [3]; under 30 nM in assay [4].
`[2H]C([2H])([2H])NC(=O)c1cnc(NC(=O)C2CC2)cc1Nc1nccc2c1N(C)Cc1nn(C([2H])([2H])[2H])nc1-2` [Compound 92, 6-(cyclopropanecarboxamido)-N-(methyl-d3)-4-((5-methyl-2-(methyl-d3)-4,5-dihydro-2H-[1,2,3]triazolo[4,5-c][1,7]naphthyridin-6-yl)amino)nicotinamide]: the IC50 was 30 to 300 nM in assay [1] (Homo sapiens, HEK-Blue); 300 to 1000 nM in assay [2]; under 30 nM in assay [3]; under 30 nM in assay [4].

In general, IC50 refers to the midpoint of a concentration-inhibition curve.
